Test results reported in the NIST ThermoML archive (doi:10.1021/acs.jced.8b00370).
Numbers after ± are expanded uncertainties.

Experiment: mn = molality of the nth substance listed, in mol/kg
Details: 100 kPa, Liquid; for speed of sound: Frequency=3 MHz, Single path-length method; for mass density: Vibrating tube method

OC[C@H]1O[C@@](CO)(O[C@H]2O[C@H](CO)[C@@H](O)[C@H](O)[C@H]2O)[C@@H](O)[C@@H]1O [D-sucrose] + O
Details	mass density, 288.15 K [kg/m3]	mass density, 298.15 K [kg/m3]	mass density, 308.15 K [kg/m3]	mass density, 318.15 K [kg/m3]	speed of sound, 288.15 K [m/s]	speed of sound, 298.15 K [m/s]	speed of sound, 308.15 K [m/s]	speed of sound, 318.15 K [m/s]
m1 = 0.1002	1012.01 ± 2	1009.81 ± 2	1006.68 ± 2	1002.77 ± 2	1476.3 ± 3	1506 ± 3	1528.2 ± 3	1544 ± 3
m1 = 0.2007	1024.37 ± 2	1022.04 ± 2	1018.8 ± 2	1014.82 ± 2	1486.2 ± 3	1515 ± 3	1536.5 ± 3	1551.6 ± 3
m1 = 0.3011	1036.19 ± 2	1033.73 ± 2	1030.39 ± 2	1026.34 ± 2	1496 ± 3	1524 ± 3	1544.7 ± 3	1559.1 ± 3
m1 = 0.4034	1047.72 ± 2	1045.13 ± 2	1041.69 ± 2	1037.58 ± 2	1506 ± 3	1533.2 ± 3	1553.1 ± 3	1566.7 ± 3
m1 = 0.4996	1058.12 ± 2	1055.43 ± 2	1051.89 ± 2	1047.73 ± 2	1515.3 ± 3	1541.7 ± 3	1561 ± 3	1574.3 ± 3
m1 = 0.6018	1068.73 ± 2	1065.92 ± 2	1062.29 ± 2	1058.07 ± 2	1525.2 ± 3	1550.6 ± 3	1569.3 ± 3	1581.7 ± 3
m1 = 0.7022	1078.71 ± 2	1075.81 ± 2	1072.09 ± 2	1067.82 ± 2	1534.9 ± 3	1559.3 ± 3	1577.2 ± 3	1589.3 ± 3
m1 = 0.7978	1087.87 ± 2	1084.86 ± 2	1081.07 ± 2	1076.72 ± 2	1543.9 ± 3	1567.4 ± 3	1584.8 ± 3	1596.1 ± 3
m1 = 0.8955	1096.86 ± 2	1093.77 ± 2	1089.9 ± 2	1085.49 ± 2	1552.9 ± 3	1575.6 ± 3	1592.3 ± 3	1603.2 ± 3
m1 = 0.9969	1105.83 ± 2	1102.65 ± 2	1098.71 ± 2	1094.23 ± 2	1562.2 ± 3	1583.8 ± 3	1600.1 ± 3	1611 ± 3
